± gives the expanded uncertainty stated by the source.
What was measured:
[1] = 100 kPa, Liquid; for viscosity: Falling or rolling sphere viscometry; for mass density: Vibrating tube method
[2] = xn = mol fraction of the nth substance listed; settings: 100 kPa, Liquid, x2 = 0; for viscosity: Falling or rolling sphere viscometry; for mass density: Vibrating tube method

SMILES | viscosity ([1]; 293.15 K) [mPa·s] | mass density ([1]; 293.15 K) [kg/m3] | viscosity ([1]; 298.15 K) [mPa·s] | mass density ([1]; 298.15 K) [kg/m3] | viscosity ([1]; 303.15 K) [mPa·s] | mass density ([1]; 303.15 K) [kg/m3] | viscosity ([1]; 308.15 K) [mPa·s] | mass density ([1]; 308.15 K) [kg/m3] | viscosity ([1]; 313.15 K) [mPa·s] | mass density ([1]; 313.15 K) [kg/m3] | viscosity ([2]; 293.15 K) [mPa·s] | mass density ([2]; 293.15 K) [kg/m3] | viscosity ([2]; 298.15 K) [mPa·s] | mass density ([2]; 298.15 K) [kg/m3] | viscosity ([2]; 303.15 K) [mPa·s] | mass density ([2]; 303.15 K) [kg/m3] | viscosity ([2]; 308.15 K) [mPa·s] | mass density ([2]; 308.15 K) [kg/m3] | viscosity ([2]; 313.15 K) [mPa·s] | mass density ([2]; 313.15 K) [kg/m3]
CCCCC1CCCCC1 [butylcyclohexane] | 1.296 ± 0.014 | 799.44 ± 0.15 | 1.196 ± 0.013 | 795.7 ± 0.15 | 1.107 ± 0.013 | 791.95 ± 0.15 | 1.027 ± 0.013 | 788.19 ± 0.15 | 0.958 ± 0.012 | 784.41 ± 0.15 | – | – | – | – | – | – | – | – | – | –
CCCCCCCCCC [decane] | 0.93 ± 0.012 | 730.52 ± 0.16 | 0.864 ± 0.012 | 726.76 ± 0.16 | 0.806 ± 0.012 | 722.97 ± 0.16 | 0.755 ± 0.011 | 719.17 ± 0.16 | 0.709 ± 0.011 | 715.36 ± 0.17 | – | – | – | – | – | – | – | – | – | –
CCCCCCCCCC [decane] + CCCCC1CCCCC1 | – | – | – | – | – | – | – | – | – | – | 0.93 ± 0.012 | 730.52 ± 0.16 | 0.864 ± 0.012 | 726.76 ± 0.16 | 0.806 ± 0.012 | 722.97 ± 0.16 | 0.755 ± 0.011 | 719.17 ± 0.16 | 0.709 ± 0.011 | 715.36 ± 0.17
CCCCCCCCCCCC [dodecane] | 1.5 ± 0.015 | 749 ± 0.16 | 1.376 ± 0.014 | 745.38 ± 0.16 | 1.265 ± 0.013 | 741.75 ± 0.16 | 1.167 ± 0.013 | 738.12 ± 0.16 | 1.081 ± 0.013 | 734.48 ± 0.16 | – | – | – | – | – | – | – | – | – | –
CCCCCCCCCCCC [dodecane] + CCCCC1CCCCC1 | – | – | – | – | – | – | – | – | – | – | 1.5 ± 0.015 | 749 ± 0.16 | 1.376 ± 0.014 | 745.38 ± 0.16 | 1.265 ± 0.013 | 741.75 ± 0.16 | 1.167 ± 0.013 | 738.12 ± 0.16 | 1.081 ± 0.013 | 734.48 ± 0.16
CCCCCCC [heptane] | 0.421 ± 0.01 | 683.99 ± 0.17 | 0.398 ± 0.01 | 679.74 ± 0.18 | 0.378 ± 0.01 | 675.41 ± 0.18 | 0.352 ± 0.01 | 671.12 ± 0.18 | 0.337 ± 0.01 | 666.92 ± 0.18 | – | – | – | – | – | – | – | – | – | –
CCCCCCC [heptane] + CCCCC1CCCCC1 | – | – | – | – | – | – | – | – | – | – | 0.421 ± 0.01 | 683.99 ± 0.17 | 0.398 ± 0.01 | 679.74 ± 0.18 | 0.378 ± 0.01 | 675.41 ± 0.18 | 0.352 ± 0.01 | 671.12 ± 0.18 | 0.337 ± 0.01 | 666.92 ± 0.18
CCCCCCCCC [nonane] | 0.725 ± 0.011 | 717.88 ± 0.16 | 0.679 ± 0.011 | 714 ± 0.17 | 0.639 ± 0.011 | 710.1 ± 0.17 | 0.604 ± 0.011 | 706.19 ± 0.17 | 0.572 ± 0.011 | 702.26 ± 0.17 | – | – | – | – | – | – | – | – | – | –
CCCCCCCCC [nonane] + CCCCC1CCCCC1 | – | – | – | – | – | – | – | – | – | – | 0.725 ± 0.011 | 717.88 ± 0.16 | 0.679 ± 0.011 | 714 ± 0.17 | 0.639 ± 0.011 | 710.1 ± 0.17 | 0.604 ± 0.011 | 706.19 ± 0.17 | 0.572 ± 0.011 | 702.26 ± 0.17
CCCCCCCC [octane] | 0.546 ± 0.011 | 702.86 ± 0.17 | 0.521 ± 0.011 | 698.85 ± 0.17 | 0.49 ± 0.011 | 694.8 ± 0.17 | 0.467 ± 0.011 | 690.73 ± 0.17 | 0.442 ± 0.011 | 686.63 ± 0.17 | – | – | – | – | – | – | – | – | – | –
CCCCCCCC [octane] + CCCCC1CCCCC1 | – | – | – | – | – | – | – | – | – | – | 0.546 ± 0.011 | 702.86 ± 0.17 | 0.521 ± 0.011 | 698.85 ± 0.17 | 0.49 ± 0.011 | 694.8 ± 0.17 | 0.467 ± 0.011 | 690.73 ± 0.17 | 0.442 ± 0.011 | 686.63 ± 0.17
CCCCCCCCCCCCCC [tetradecane] | 2.329 ± 0.019 | 763.09 ± 0.15 | 2.096 ± 0.018 | 759.57 ± 0.15 | 1.898 ± 0.017 | 756.03 ± 0.15 | 1.729 ± 0.016 | 752.51 ± 0.16 | 1.584 ± 0.015 | 748.98 ± 0.16 | – | – | – | – | – | – | – | – | – | –
CCCCCCCCCCCCCC [tetradecane] + CCCCC1CCCCC1 | – | – | – | – | – | – | – | – | – | – | 2.329 ± 0.019 | 763.09 ± 0.15 | 2.096 ± 0.018 | 759.57 ± 0.15 | 1.898 ± 0.017 | 756.03 ± 0.15 | 1.729 ± 0.016 | 752.51 ± 0.16 | 1.584 ± 0.015 | 748.98 ± 0.16
